Experimental data taken from patent publication US20210379046A1, “Methods of Treating Diseases Using Kinase Modulators” (Memorial Sloan Kettering Cancer Center, priority 2018, published 2021).
“Also recorded” adds a separate entry of the source.

Legend:
Assay type in all cases: cell-based, human
[1] = test system: pERK in TPC1 cells; assay: Western blot of pERK in TPC1 cells; settings: TPC1, 24 hrs
Description: Cells were seeded in a 60 mm dish or 6 well plates. After the appropriate time point, cells were harvested and lysed and protein was quantified by a Lowry assay (Bio-Rad DC Protein Assay; #5000116). Protein levels were normalized and run on SDS PAGE gels (Bio-Rad). Protein was transferred to a nitrocellulose membrane using semi-dry transfer. Membrane was blocked and incubated with respective antibodies. When needed, secondary antibodies with HRP were incubated for 1 hr. Enhanced chemiluminescent substrate for HRP enzymes was used to image protein levels (Thermo-Fischer; #34095).
Cells were seeded in a 60 mm dish or 6 well plates. After the appropriate time point, cells were harvested, lysed in RIPA buffer (Thermo Instruments) and protein concentration was quantified by a Lowry assay (using the Bio-Rad DC Protein Assay; #5000116 on a Spectramax device from Molecular Devices). Protein loading levels were equalized per lane and separated on SDS gels (Bio-Rad). Protein was transferred to a nitrocellulose membrance using semi-dry transfer (BioRad). Membranes were blocked with Omniblock (American Bio) and incubated with respected antibodies. When needed, secondary antibodies with HRP were incubated for 1 hr. Enhanced chemiluminescent substrate for HRP enzymes was used to image protein levels (Thermo-Fischer; #34095) on a ChemiDoc MP imager with Soft Max Pro software (Biorad).

[2] = test system: TPC1 cells; assay: Mass spectrometry of eluted HLA class I presented peptides, TPC1 cells
Description: After 72 hrs, cells were harvested, washed, lysed. The lysate was run through an activated Sepharose-CNBr column coupled to the W6/32 antibody to bind HLA-A,B,C from the cell. The peptides bound by those HLAs and captured on the column were then eluted and mass spectrometry was run on those peptides.
Immunopurification affinity columns were prepared as described previously (Bassani-Sternberg et al., 2015, Mol Cell Proteomics 14(3):658-673). In brief, 40 mg of Cyanogen bromide-activated-Sepharose® 4B (Sigma-Aldrich, Cat #C9142) was activated with 1 mM hydrochloric acid (Sigma-Aldrich, Cat #320331) for 30 min. Subsequently, 0.5 mg of W6/32 antibody (BioXCell, BE0079; RRID: AB 1107730) was coupled to sepharose in presence of binding buffer (150 mM sodium chloride, 50 mM sodium bicarbonate, pH 8.3; sodium chloride: Sigma-Aldrich, Cat #S9888, sodium bicarbonate: Sigma-Aldrich, Cat #56014) for at least 2 hours at room temperature. Sepharose was blocked for 1 h with glycine (Sigma-Aldrich, Cat #410225). Columns were equilibrated with PBS for 10 min. […]. Afterwards, cells were lysed in 1 ml 1% CHAPS (Sigma-Aldrich, Cat #C3023) in PBS, supplemented with 1 tablet of protease inhibitors (cOmplete, Cat #11836145001) for 1 hour at 4° C. This lysate was spun down for 1 hour at 20,000 g at 4° C. Supernatant was run over the affinity column through peristaltic pumps at 1 ml/min overnight at 4° C. Affinity columns were washed with PBS for 15 min, run dry, and HLA complexes subsequently eluted three times with 200 μl 1% trifluoracetic acid (TFA, Sigma/Aldrich, Cat #02031). For separation of HLA ligands from their HLA complexes tC18 columns (Sep-Pak tC18 1 cc VacCartridge, 100 mg Sorbent per Cartridge, 37-55 μm Particle Size, Waters, Cat #WAT036820) were prewashed with 80% acetonitrile (ACN, Sigma-Aldrich, Cat #34998) in 0.1% TFA and equilibrated with two washes of 0.1% TFA. Samples were loaded, washed again with 0.1% TFA and eluted in 400 μl 30% ACN in 0.1% TFA. Sample volume was reduced by vacuum centrifugation for mass spectrometry analysis.
Samples were analyzed by a high resolution/high accuracy LC-MS/MS (Lumos Fusion, Thermo Fisher). Peptides were desalted using ZipTips (Sigma Millipore, Cat. #ZTC18S008) according to manufactures instructions and concentrated using vacuum centrifugation prior to being separated using direct loading onto a packedin-emitter C18 column (75 um ID/12 cm, 3 μm particles, Nikkyo Technos Co., Ltd. Japan). The gradient was delivered at 300 nl/min increasing linear from 2% Buffer B (0.1% formic acid in 80% acetonitrile)/98% Buffer A (0.1% formic acid) to 30% Buffer B/70% Buffer A, over 70 minutes. MS and MS/MS were operated at resolutions of 60,000 and 30,000, respectively. Only charge states 1, 2 and 3 were allowed. 1.6 Th was chosen as the isolation window and the collision energy was set at 30%. For MS/MS, the maximum injection time was 100 ms with an AGC of 50,000.
Mass spectrometry data was processed using Byonic software (version 2.7.84, Protein Metrics, PaloAlto, Calif.) through a custom-built computer server equipped with 4 Intel Xeon E5-4620 8-core CPUs operating at 2.2 GHz, and 512 GB physical memory (Exxact Corporation, Freemont, Calif.). Mass accuracy for MS1 was set to 10 ppm and to 20 ppm for MS2, respectively. Digestion specificity was defined as unspecific and only precursors with charges 1, 2, and 3 and up to 2 kDa were allowed. Protein FDR was disabled to allow complete assessment of potential peptide identifications. Oxidization of methionine, N-terminal acetylation, phosphorylation of serine, threonine and tyrosine were set as variable modifications for all samples. All samples were searched against the UniProt Human Reviewed Database (20,349 entries, uniprot.org, downloaded June 2017). […]

[3] = test system: TPC1 cells; assay: Luminex cytokine secretion, TPC1 cells; settings: TPC1, 10 nm AST487
Description: Supernatant media were harvested after treatment and analyzed by the Luminex device (Luminex Corporation, Austin, Tex.) for relevant cytokine secretion. […] On the left side of each panel is data after 24 hours. On the right side of each panel is data after 48 hours. […] IFNγ detected in the Luminex assay (50-70 ng/ml) is from the added IFNγ at 100 ng/ml at time zero. Therefore, the increase in HLA after inhibitor treatment in these cell lines is not due to indirect activation of the JAK/STAT pathway via autocrine cytokine signaling. The data points shown in this figure are in pairs for each condition. The data point pairs for each time point are, from left to right: DMSO, Rux, Alec, IFNg, and IFNg+Rux.

CCN1CCN(Cc2ccc(NC(=O)Nc3ccc(Oc4cc(NC)ncn4)cc3)cc2C(F)(F)F)CC1 [AST487]
pERK levels [1]: Inhibition of pERK was seen even at concentrations as low as 10 nM; also recorded: Phospho-ERK levels decreased
runs TEIPP peptide was found in (n = 3) ([2]; ALFSFVTAL (SEQ ID NO: 11)): 0
runs TEIPP peptide was found in (n = 3) ([2]; FLGPWPAAS (SEQ ID NO: 12)): 1
runs TEIPP peptide was found in (n = 3) ([2]; FLSELQYYL (SEQ ID NO: 13)): 0
runs TEIPP peptide was found in (n = 3) ([2]; FLYPFLSHL (SEQ ID NO: 14)): 0
runs TEIPP peptide was found in (n = 3) ([2]; ILEYLTAEV (SEQ ID NO: 15)): 0
runs TEIPP peptide was found in (n = 3) ([2]; LLALAAGLAV (SEQ ID NO: 16)): 0
runs TEIPP peptide was found in (n = 3) ([2]; LLLDVPTAAV (SEQ ID NO: 17)): 0
runs TEIPP peptide was found in (n = 3) ([2]; LLLSAEPVPA (SEQ ID NO: 18)): 0
runs TEIPP peptide was found in (n = 3) ([2]; LLWGRQLFA (SEQ ID NO: 19)): 0
runs TEIPP peptide was found in (n = 3) ([2]; LSEKLERI (SEQ ID NO: 20)): 0
runs TEIPP peptide was found in (n = 3) ([2]; LTLLGTLWGA (SEQ ID NO: 21)): 0
runs TEIPP peptide was found in (n = 3) ([2]; SVLWLGALGL (SEQ ID NO: 22)): 0
runs TEIPP peptide was found in (n = 3) ([2]; TLLGASLPA (SEQ ID NO: 23)): 0
new peptides (only peptides found in all three runs counted) ([2]; TPC1, 10 nM AST487 or 100 nM cabozantinib): 458
unique ligands presented ([2]; TPC1, 10 nM AST487 or 100 nM cabozantinib, three runs pooled, DMSO 4211): 5274
increase in unique peptides vs DMSO ([2]; TPC1, three runs pooled): 25%
unique HLA ligands detected in all 3 runs ([2]; TPC1, DMSO 195): 585
runs TEIPP peptide was found in (n = 3) ([2]; VIIKPLVWV (SEQ ID NO: 24)): 0
runs TEIPP peptide was found in (n = 3) ([2]; VLAVFIKAV (SEQ ID NO: 25)): 0
runs TEIPP peptide was found in (n = 3) ([2]; VLLDHLSLA (SEQ ID NO: 26)): 0
IFNα, IFNγ, IL4, IL6 and TNFα secretion [3]: had no effect on IFNα, IFNγ, IL4, IL6 or TNFα secretion; also recorded: had no effect on IFNα, IFNγ, IL4, IL6 and TNFα secretion
